Source: ChEMBL document CHEMBL5725537, “Pyrazolo-pyrrolidin-4-one derivatives and their use in the treatment of disease” (2017)

How the values were obtained:
[1] = biological target: Bromodomain-containing protein 3 (Homo sapiens, UniProt Q15059); assay: (§1) TR-FRET In-Vitro Binding Assays for BRD2, BRD3, and BRD4: All assays were performed in 384 well microtiter plates. Each assay plate contained 8-point serial dilutions for 40 test compounds, plus 16 high- and 16 low controls. Liquid handling and incubation steps were done on an Innovadyne Nanodrop Express equipped with a robotic arm (Thermo CatX, Perkin Elmer/Caliper Twister II) and an incubator (Liconic STX40, Thermo Cytomat 2C450). The assay plates were prepared by addition of 50 nl per well of compound solution in 90% DMSO HummingBird nanodispenser (Zinsser Analytic). The assay was started by stepwise addition of 4.5 μl per well of bromo domain protein (50 mM HEPES, pH 7.5, 0.005% Tween20, 0.1% BSA, 50 mM NaCl, 45 nM His-Brd2(60-472) or 45 nM His-Brd3(20-477) or 45 nM His-Brd4(44-477) all proteins produced in-house) and 4.5 μl per well of peptide solution (50 mM HEPES, pH 7.5, 0.005% Tween20, 0.1% BSA, 50 mM NaCl, 60 nM acetyl-histone H4 (AcK 5, 8, 12, 16) (Biosyntan GmbH)). Reactions were incubated at 30° C. for 35 minutes. Subsequently 4.5 μl per well detection mix (50 mM HEPES, pH 7.5, 0.005% Tween20, 0.1% BSA, 50 mM NaCl, 3 nM Eu-labeled anti-His6 antibody, 21 nM streptavidin-allophycocyanin) were added. After 35 minutes incubation at 30° C., plates were measured in a Perkin Elmer EnVision multilabel reader. Concentrations causing 50% inhibition (1050) values were determined from percent inhibition values at different compound concentrations by non-linear regression analysis.
Sequence of Bromodomain-containing protein 3 (Q15059 whole entry, the tested form may be a part): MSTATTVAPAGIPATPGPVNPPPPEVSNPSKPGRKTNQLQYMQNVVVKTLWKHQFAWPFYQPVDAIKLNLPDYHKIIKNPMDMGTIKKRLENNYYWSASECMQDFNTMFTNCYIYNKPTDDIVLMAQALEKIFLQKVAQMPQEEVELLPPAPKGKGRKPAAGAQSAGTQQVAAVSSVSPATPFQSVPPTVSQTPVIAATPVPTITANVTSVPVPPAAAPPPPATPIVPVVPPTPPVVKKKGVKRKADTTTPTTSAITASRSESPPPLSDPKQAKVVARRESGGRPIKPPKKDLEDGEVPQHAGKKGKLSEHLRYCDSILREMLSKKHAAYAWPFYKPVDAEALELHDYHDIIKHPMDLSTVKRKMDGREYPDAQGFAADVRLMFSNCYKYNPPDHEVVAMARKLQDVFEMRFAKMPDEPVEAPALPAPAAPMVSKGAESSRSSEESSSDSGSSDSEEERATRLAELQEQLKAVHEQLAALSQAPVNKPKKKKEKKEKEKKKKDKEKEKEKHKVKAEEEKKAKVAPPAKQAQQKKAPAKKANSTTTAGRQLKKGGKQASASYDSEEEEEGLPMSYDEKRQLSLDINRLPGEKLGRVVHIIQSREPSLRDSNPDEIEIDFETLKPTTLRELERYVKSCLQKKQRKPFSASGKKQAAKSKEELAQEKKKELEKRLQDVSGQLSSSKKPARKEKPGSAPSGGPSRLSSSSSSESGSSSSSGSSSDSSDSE

[2] = biological target: Bromodomain-containing protein 4 (Homo sapiens, UniProt O60885); assay: as §1
[3] = biological target: CREB-binding protein (Homo sapiens, UniProt Q92793); assay: AlphaScreen In-Vitro Binding Assay for CREBBP: In order to assess bromodomain selectivity, we set up a binding assay using the bromodomain encoded by the CREBBP gene. […] Reactions were incubated at 30° C. for 35 minutes. Subsequently 4.5 μl per well detection mix (50 mM HEPES, pH 7.5, 0.005% Tween20, 0.02% BSA, 150 mM NaCl, 45 μg/ml Ni-chelate acceptor beads, 45 μg/ml streptavidin-donor beads) (Perkin Elmer)) were added. After 60 minutes incubation at room temperature, plates were measured in a Perkin Elmer EnVision multilabel reader. IC50 values were determined from percent inhibition values at different compound concentrations by non-linear regression analysis.
Sequence of CREB-binding protein (Q92793 whole entry): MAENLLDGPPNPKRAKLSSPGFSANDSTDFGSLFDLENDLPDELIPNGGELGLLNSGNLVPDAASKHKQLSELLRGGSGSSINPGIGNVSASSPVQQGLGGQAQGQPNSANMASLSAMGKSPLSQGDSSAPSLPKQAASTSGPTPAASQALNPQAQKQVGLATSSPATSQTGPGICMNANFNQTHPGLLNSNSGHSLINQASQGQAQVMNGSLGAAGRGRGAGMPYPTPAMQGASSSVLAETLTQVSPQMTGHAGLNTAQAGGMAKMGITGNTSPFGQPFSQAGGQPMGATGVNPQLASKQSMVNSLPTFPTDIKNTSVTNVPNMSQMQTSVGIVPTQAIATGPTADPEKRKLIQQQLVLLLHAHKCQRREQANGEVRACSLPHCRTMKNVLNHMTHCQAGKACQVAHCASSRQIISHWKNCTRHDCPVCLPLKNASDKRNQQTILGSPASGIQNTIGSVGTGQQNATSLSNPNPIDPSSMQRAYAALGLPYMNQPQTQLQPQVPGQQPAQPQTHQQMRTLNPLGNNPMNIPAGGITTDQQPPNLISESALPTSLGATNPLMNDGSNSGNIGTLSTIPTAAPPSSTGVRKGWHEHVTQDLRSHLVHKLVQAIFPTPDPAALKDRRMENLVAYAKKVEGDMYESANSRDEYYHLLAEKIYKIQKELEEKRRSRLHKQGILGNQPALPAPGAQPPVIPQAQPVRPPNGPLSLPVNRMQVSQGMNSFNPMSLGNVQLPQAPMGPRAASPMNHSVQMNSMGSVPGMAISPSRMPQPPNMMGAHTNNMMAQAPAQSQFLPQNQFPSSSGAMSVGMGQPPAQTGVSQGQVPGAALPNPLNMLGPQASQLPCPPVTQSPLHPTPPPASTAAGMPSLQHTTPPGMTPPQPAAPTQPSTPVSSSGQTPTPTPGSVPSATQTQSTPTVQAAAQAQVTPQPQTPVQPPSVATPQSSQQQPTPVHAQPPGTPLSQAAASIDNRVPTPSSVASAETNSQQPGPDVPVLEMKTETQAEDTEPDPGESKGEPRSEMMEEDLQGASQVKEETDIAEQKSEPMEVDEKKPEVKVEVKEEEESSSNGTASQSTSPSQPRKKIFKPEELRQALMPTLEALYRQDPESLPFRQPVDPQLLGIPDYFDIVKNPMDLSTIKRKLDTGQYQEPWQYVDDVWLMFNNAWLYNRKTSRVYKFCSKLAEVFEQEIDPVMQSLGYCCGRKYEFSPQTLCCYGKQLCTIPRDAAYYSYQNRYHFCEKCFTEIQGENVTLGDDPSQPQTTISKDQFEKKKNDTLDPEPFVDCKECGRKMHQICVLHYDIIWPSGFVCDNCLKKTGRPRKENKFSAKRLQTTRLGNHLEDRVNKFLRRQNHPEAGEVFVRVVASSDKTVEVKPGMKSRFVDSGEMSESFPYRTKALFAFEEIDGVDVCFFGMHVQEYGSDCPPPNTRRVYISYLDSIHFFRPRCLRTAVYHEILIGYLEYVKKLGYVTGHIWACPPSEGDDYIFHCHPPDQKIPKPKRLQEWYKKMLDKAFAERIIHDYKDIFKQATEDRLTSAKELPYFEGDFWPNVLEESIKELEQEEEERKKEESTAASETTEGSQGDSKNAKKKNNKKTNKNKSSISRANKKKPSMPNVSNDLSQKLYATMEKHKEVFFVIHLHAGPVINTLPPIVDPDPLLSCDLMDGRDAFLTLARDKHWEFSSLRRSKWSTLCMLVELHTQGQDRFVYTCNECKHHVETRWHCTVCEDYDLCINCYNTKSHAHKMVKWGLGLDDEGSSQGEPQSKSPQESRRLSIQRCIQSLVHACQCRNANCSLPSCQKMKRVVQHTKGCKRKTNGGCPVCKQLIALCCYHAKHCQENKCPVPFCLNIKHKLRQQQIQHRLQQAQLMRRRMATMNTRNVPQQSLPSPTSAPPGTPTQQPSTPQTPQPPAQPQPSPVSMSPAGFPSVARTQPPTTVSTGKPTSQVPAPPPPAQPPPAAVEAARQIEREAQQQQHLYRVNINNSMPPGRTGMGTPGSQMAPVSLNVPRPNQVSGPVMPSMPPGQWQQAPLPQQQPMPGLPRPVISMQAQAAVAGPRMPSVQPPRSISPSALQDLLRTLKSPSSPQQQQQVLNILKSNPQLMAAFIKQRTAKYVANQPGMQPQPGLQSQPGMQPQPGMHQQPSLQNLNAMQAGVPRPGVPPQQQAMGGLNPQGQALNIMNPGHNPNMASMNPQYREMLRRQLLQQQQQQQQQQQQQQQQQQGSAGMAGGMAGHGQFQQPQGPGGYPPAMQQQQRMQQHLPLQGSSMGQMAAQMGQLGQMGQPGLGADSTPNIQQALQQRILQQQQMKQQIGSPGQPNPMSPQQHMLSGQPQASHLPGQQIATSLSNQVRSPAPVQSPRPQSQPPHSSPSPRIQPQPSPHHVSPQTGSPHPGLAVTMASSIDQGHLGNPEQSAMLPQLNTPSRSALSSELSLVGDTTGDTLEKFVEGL

[4] = biological target: Bromodomain-containing protein 2 (Homo sapiens, UniProt P25440); assay: as §1
Sequence of Bromodomain-containing protein 2 (P25440 whole entry): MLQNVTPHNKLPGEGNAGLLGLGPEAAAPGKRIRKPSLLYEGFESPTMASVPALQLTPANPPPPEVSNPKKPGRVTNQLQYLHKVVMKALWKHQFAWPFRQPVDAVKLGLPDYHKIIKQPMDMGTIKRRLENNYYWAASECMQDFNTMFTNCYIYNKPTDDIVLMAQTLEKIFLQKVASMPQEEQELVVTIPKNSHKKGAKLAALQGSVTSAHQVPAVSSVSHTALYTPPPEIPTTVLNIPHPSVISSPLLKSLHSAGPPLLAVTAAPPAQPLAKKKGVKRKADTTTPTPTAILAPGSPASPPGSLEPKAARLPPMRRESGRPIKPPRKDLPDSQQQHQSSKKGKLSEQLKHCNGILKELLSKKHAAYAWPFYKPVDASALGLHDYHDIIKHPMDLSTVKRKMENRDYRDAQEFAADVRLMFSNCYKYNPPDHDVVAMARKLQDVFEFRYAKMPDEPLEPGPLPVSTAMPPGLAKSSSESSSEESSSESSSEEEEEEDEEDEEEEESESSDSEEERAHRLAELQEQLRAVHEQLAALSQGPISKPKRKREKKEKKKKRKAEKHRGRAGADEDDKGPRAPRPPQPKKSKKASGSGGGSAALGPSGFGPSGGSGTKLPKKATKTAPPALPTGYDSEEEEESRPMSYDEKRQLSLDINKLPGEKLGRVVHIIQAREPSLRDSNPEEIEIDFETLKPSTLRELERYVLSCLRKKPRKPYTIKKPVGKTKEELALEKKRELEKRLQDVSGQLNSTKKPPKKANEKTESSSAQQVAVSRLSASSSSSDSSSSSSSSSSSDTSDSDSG

Structure (SMILES) | IC50 [1] | IC50 [2] | IC50 [3] | IC50 [4]
CCOc1ncccc1-n1nc(C)c2c1C(c1ccc(Cl)cc1)N(c1cc(C)c(=O)n(C)c1)C2=O (stereo unspecified) | 62 nM | 79 nM | 3100 nM | –
COc1ncccc1-n1nc(C)c2c1C(c1ccc(Cl)cc1)N(c1cc(C)c(=O)n(C)c1)C2=O (stereo unspecified) | – | 86 nM | 4000 nM | 78 nM
